This passage reports Activity results from ChEMBL document CHEMBL4304811, “Development of a Water-Soluble Indolylmaleimide Derivative IM-93 Showing Dual Inhibition of Ferroptosis and NETosis” (ACS Med Chem Lett, 2019).

In assay [1] the target is Serine/threonine-protein kinase N1 (Homo sapiens) (UniProt Q16512). Kind of assay: Binding affinity to wild-type human partial length PKN1 (E598 to C948 residues) expressed in bacterial expression system assessed as residual binding level at 10 uM by Kinomescan method relative to control.
Assay [2] addresses Cyclin-dependent kinase 18 (Homo sapiens) (UniProt Q07002). The experiment in a line: Binding affinity to wild-type human full length PCTK3 (M3 to F474 residues) expressed in bacterial expression system assessed as residual binding level at 10 uM by Kinomescan method relative to control.
Assay [3] concerns the target Serine/threonine-protein kinase pim-3 (Homo sapiens) (UniProt Q86V86). The experiment in a line: Binding affinity to wild-type human partial length PIM3 (G16 to A317 residues) expressed in bacterial expression system assessed as residual binding level at 10 uM by Kinomescan method relative to control.
The target of assay [4] is Serine/threonine-protein kinase Nek9 (Homo sapiens) (UniProt Q8TD19). Kind of assay: Binding affinity to wild-type human partial length NEK9 (P32 to R328 residues) expressed in bacterial expression system assessed as residual binding level at 10 uM by Kinomescan method relative to control.
The target in assay [5] is Tyrosine-protein kinase SYK (Homo sapiens) (UniProt P43405). Kind of assay: Binding affinity to wild-type human partial length SYK (D354 to N635 residues) expressed in bacterial expression system assessed as residual binding level at 10 uM by Kinomescan method relative to control.
Assay [6] concerns the target Serine/threonine-protein kinase PknB (Mycobacterium tuberculosis) (UniProt P9WI81). Kind of assay: Binding affinity to wild-type Mycobacterium tuberculosis partial length PKNB (M1 to G279 residues) expressed in mammalian expression system assessed as residual binding level at 10 uM by Kinomescan method relative to control.
For assay [7], the target named is Phosphatidylinositol 4-phosphate 5-kinase type-1 alpha (Homo sapiens) (UniProt Q99755). The experiment in a line: Binding affinity to wild-type human full length PIP5K1A (M1 to H562 residues) expressed in bacterial expression system assessed as residual binding level at 10 uM by Kinomescan method relative to control.
The target of assay [8] is Protein kinase C iota type (Homo sapiens) (UniProt P41743). The experiment in a line: Binding affinity to wild-type human partial length PRKCI (H215 to V587 residues) expressed in mammalian expression system assessed as residual binding level at 10 uM by Kinomescan method relative to control.
Chain of Protein kinase C iota type (Homo sapiens) (P41743 whole entry, the tested form may be a part): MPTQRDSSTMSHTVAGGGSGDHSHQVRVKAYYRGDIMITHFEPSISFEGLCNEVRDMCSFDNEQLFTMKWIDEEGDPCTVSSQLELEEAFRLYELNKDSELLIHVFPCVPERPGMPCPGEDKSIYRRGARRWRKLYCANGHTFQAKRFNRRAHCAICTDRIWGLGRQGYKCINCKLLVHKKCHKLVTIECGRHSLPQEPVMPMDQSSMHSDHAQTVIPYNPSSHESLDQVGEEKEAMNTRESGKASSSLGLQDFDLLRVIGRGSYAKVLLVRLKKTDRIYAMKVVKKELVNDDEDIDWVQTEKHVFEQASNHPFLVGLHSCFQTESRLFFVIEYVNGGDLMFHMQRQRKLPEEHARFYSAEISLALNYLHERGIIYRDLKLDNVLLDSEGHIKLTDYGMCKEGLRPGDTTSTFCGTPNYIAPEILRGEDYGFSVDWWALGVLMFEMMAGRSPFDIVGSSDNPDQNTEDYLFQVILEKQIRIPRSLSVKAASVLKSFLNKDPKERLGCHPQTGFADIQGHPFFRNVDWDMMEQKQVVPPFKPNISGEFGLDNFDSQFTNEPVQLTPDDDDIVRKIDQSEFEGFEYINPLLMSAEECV
Assay [9] deals with Mast/stem cell growth factor receptor Kit (Homo sapiens) (UniProt P10721). The experiment in a line: Binding affinity to wild-type human partial length autoinhibited KIT (Y545 to D952 residues) expressed in mammalian expression system assessed as residual binding level at 10 uM by Kinomescan method relative to control.
In assay [10] the target is Serine/threonine-protein kinase Nek7 (Homo sapiens) (UniProt Q8TDX7). The experiment in a line: Binding affinity to wild-type human full length NEK7 (M1 to S302 residues) expressed in bacterial expression system assessed as residual binding level at 10 uM by Kinomescan method relative to control.
Chain of Serine/threonine-protein kinase Nek7 (Homo sapiens) (Q8TDX7 whole entry, looked up, the tested form may be a part): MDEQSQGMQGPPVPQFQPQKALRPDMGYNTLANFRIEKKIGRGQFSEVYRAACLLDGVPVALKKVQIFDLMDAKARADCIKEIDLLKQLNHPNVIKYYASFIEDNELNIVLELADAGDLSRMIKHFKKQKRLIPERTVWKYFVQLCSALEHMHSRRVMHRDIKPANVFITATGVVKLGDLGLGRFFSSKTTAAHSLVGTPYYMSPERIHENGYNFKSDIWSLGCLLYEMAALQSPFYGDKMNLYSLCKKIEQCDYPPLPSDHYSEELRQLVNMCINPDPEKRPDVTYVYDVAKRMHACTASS
For assay [11], the target named is Serine/threonine-protein kinase PAK 1 (Homo sapiens) (UniProt Q13153). Kind of assay: Binding affinity to wild-type human partial length PAK1 (S149 to H545 residues) expressed in bacterial expression system assessed as residual binding level at 10 uM by Kinomescan method relative to control.
The target of assay [12] is Glycogen synthase kinase-3 alpha (Homo sapiens) (UniProt P49840). The experiment in a line: Binding affinity to wild-type human full length GSK3A (M1 to S483 residues) expressed in bacterial expression system assessed as residual binding level at 10 uM by Kinomescan method relative to control.
Chain of Glycogen synthase kinase-3 alpha (Homo sapiens) (P49840 2-483 limits assumed): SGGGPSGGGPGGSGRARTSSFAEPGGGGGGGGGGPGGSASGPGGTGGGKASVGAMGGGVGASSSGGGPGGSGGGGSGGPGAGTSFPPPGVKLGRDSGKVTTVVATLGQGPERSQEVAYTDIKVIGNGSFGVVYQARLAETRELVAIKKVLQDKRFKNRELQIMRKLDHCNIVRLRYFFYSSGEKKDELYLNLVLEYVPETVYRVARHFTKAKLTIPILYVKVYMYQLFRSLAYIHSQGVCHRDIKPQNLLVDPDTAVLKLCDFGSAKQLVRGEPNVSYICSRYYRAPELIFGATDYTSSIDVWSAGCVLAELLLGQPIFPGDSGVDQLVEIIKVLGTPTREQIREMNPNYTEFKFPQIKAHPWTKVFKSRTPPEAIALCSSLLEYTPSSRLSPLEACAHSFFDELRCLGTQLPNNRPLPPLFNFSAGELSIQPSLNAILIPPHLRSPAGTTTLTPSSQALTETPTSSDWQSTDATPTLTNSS
Assay [13] deals with Tyrosine-protein kinase JAK1 (Homo sapiens) (UniProt P23458). The experiment in a line: Binding affinity to wild-type human partial length JAK1 JH2 pseudokinase domain (R537 to D855 residues) expressed in mammalian expression system assessed as residual binding level at 10 uM by Kinomescan method relative to control.
Chain of Tyrosine-protein kinase JAK1 (Homo sapiens) (P23458 whole entry, the tested form may be a part): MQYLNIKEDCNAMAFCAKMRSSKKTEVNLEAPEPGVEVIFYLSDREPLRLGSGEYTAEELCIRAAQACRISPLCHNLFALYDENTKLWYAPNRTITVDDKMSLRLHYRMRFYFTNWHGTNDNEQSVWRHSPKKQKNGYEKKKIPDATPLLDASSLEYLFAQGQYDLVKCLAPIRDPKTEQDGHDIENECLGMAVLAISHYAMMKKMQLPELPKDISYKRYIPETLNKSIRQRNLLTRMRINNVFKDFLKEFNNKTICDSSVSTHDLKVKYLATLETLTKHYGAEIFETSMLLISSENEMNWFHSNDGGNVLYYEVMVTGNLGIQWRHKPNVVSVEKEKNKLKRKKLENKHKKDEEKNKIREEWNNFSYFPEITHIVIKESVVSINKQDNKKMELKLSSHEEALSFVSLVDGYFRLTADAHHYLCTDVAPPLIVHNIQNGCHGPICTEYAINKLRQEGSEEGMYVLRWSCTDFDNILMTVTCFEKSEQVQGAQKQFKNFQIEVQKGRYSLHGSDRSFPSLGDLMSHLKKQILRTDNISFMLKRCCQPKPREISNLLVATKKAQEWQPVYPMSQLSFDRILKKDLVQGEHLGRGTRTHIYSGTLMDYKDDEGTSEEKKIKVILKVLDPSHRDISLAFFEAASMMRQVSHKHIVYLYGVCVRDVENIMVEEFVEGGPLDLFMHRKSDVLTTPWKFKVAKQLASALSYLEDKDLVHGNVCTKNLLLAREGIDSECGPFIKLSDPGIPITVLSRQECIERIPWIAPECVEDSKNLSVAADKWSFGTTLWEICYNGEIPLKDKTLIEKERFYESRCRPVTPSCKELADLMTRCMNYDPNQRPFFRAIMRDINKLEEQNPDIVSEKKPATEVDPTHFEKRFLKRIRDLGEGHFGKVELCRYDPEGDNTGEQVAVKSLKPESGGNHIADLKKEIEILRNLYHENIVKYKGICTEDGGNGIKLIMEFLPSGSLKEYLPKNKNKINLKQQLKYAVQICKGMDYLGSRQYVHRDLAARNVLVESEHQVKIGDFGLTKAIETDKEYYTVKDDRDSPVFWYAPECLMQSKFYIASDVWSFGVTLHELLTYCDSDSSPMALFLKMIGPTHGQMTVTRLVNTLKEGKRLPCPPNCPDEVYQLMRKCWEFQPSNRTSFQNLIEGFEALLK
Assay [14] addresses Leucine-rich repeat serine/threonine-protein kinase 2 (Homo sapiens) (UniProt Q5S007). The experiment in a line: Binding affinity to wild-type human partial length LRRK2 (H970 to E2527 residues) expressed in mammalian expression system assessed as residual binding level at 10 uM by Kinomescan method relative to control.
For assay [15], the target named is Serine/threonine-protein kinase 17A (Homo sapiens) (UniProt Q9UEE5). The experiment in a line: Binding affinity to wild-type human partial length DRAK1 (R32 to E363 residues) expressed in bacterial expression system assessed as residual binding level at 10 uM by Kinomescan method relative to control.
Chain of Serine/threonine-protein kinase 17A (Homo sapiens) (Q9UEE5 whole entry, the tested form may be a part): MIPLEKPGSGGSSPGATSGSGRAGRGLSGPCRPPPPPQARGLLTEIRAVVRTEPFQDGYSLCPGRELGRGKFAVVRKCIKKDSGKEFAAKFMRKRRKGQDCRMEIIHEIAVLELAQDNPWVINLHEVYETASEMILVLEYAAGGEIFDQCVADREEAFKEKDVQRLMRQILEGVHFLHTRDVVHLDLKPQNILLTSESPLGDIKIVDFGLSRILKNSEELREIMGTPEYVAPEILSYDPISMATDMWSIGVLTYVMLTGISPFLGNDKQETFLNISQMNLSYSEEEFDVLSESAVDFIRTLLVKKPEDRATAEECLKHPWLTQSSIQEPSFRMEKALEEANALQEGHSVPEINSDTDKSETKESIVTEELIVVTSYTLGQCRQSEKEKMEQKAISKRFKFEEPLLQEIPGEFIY
Assay [16] deals with Cyclin-dependent kinase 4/cyclin D1 (Homo sapiens) (UniProt P11802+P24385). Kind of assay: Binding affinity to wild-type human full length CDK4/cyclinD1 (M1 to E303 residues) expressed in mammalian expression system assessed as residual binding level at 10 uM by Kinomescan method relative to control.
The target in assay [17] is Citron Rho-interacting kinase (Homo sapiens) (UniProt O14578). Kind of assay: Binding affinity to wild-type human partial length CIT (M68 to E432 residues) expressed in bacterial expression system assessed as residual binding level at 10 uM by Kinomescan method relative to control.
The target in assay [18] is Mitogen-activated protein kinase kinase kinase kinase 1 (Homo sapiens) (UniProt Q92918). The experiment in a line: Binding affinity to wild-type human full length HPK1 (M1 to R799 residues) expressed in bacterial expression system assessed as residual binding level at 10 uM by Kinomescan method relative to control.
Chain of Mitogen-activated protein kinase kinase kinase kinase 1 (Homo sapiens) (Q92918 whole entry, looked up, the tested form may be a part): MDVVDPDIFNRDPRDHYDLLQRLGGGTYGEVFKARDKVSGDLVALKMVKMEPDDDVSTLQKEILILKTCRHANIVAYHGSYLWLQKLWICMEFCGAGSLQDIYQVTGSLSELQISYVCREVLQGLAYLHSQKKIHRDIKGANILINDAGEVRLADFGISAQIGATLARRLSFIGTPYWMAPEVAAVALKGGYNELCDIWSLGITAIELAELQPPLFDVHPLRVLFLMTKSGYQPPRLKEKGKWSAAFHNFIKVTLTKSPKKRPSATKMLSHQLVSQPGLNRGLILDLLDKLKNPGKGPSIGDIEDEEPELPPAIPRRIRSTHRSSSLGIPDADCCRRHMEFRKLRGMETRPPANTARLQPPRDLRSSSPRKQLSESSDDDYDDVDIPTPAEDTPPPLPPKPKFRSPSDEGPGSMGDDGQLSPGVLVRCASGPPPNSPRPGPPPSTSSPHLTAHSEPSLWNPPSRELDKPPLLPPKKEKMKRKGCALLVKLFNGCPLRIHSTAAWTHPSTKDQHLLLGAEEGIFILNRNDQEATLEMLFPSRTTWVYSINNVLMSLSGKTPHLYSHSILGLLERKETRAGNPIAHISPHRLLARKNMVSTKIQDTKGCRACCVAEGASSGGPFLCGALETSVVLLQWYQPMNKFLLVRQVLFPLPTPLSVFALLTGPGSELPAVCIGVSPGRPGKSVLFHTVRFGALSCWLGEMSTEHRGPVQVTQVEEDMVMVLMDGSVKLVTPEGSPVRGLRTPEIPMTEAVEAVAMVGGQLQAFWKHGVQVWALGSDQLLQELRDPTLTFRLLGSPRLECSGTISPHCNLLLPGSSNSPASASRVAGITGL
The subject of assay [19] is Tyrosine-protein kinase ABL1 (Homo sapiens), P00519 [T315I]. The experiment in a line: Binding affinity to human non-phosphorylated ABL1 T315I mutant (S229 to K512 residues) expressed in mammalian expression system assessed as residual binding level at 10 uM by Kinomescan method relative to control.
Assay [20] addresses MAP kinase-interacting serine/threonine-protein kinase 2 (Homo sapiens) (UniProt Q9HBH9). The experiment in a line: Binding affinity to wild-type human partial length MKNK2 (G63 to S388 residues) expressed in mammalian expression system assessed as residual binding level at 10 uM by Kinomescan method relative to control.
Assay [21] concerns the target Serine/threonine-protein kinase NLK (Homo sapiens) (UniProt Q9UBE8). Kind of assay: Binding affinity to wild-type human full length NLK (M13 to E527 residues) expressed in bacterial expression system assessed as residual binding level at 10 uM by Kinomescan method relative to control.
Assay [22] concerns the target Testis-specific serine/threonine-protein kinase 1 (Homo sapiens) (UniProt Q9BXA7). The experiment in a line: Binding affinity to wild-type human full length TSSK1B (M1 to Q367 residues) expressed in bacterial expression system assessed as residual binding level at 10 uM by Kinomescan method relative to control.
For assay [23], the target named is Calcium/calmodulin-dependent protein kinase type II subunit beta (Homo sapiens) (UniProt Q13554). The experiment in a line: Binding affinity to wild-type human partial length CAMK2B (M1 to Q380 residues) expressed in bacterial expression system assessed as residual binding level at 10 uM by Kinomescan method relative to control.
Chain of Calcium/calmodulin-dependent protein kinase type II subunit beta (Homo sapiens) (Q13554 whole entry, the tested form may be a part): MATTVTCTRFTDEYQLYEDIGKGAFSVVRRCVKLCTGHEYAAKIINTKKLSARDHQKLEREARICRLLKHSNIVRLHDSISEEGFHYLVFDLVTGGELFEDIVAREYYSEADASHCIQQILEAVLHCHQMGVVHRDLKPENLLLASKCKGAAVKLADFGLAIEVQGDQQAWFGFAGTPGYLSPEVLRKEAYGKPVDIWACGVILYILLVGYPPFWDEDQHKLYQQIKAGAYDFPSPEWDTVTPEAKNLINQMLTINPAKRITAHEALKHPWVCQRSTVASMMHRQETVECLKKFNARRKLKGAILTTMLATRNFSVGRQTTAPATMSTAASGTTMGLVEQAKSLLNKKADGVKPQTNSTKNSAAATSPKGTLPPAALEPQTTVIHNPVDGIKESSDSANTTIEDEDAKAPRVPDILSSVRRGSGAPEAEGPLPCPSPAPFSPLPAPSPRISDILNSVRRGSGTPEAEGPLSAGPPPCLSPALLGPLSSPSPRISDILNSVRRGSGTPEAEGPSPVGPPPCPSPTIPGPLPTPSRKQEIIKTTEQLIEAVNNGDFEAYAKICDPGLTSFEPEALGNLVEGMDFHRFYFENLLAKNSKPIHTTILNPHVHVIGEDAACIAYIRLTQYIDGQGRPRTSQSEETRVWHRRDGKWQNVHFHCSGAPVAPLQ
For assay [24], the system named is Fibroblast growth factor receptor 3 (Homo sapiens), P22607 [G697C]. The experiment in a line: Binding affinity to human partial length FGFR3 G697C mutant (R442 to S771 residues) expressed in bacterial expression system assessed as residual binding level at 10 uM by Kinomescan method relative to control.

Molecules are shown by their SMILES.

Chain of Cyclin-dependent kinase 18 (Homo sapiens) (Q07002 whole entry, the tested form may be a part): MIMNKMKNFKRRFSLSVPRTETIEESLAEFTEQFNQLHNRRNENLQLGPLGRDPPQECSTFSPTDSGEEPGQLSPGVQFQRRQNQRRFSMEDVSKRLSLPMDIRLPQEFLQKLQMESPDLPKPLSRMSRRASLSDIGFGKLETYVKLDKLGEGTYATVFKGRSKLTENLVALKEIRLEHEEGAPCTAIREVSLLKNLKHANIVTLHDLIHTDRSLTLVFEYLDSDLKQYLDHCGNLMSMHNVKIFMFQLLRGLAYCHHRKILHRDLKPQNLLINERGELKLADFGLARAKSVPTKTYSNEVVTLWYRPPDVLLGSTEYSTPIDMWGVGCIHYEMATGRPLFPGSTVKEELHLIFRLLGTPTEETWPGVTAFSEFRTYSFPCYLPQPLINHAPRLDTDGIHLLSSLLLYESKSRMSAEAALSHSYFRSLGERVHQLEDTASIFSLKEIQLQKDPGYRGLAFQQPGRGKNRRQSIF

As to `CC(C)N1C(=O)C(NCCCN(C)C)=C(c2cn(C)c3ccccc23)C1=O.Cl`, the Activity stood at 100% in [1]; 99% in assay [2]; 98% in assay [3]; 100% in [4]; 82% in [5]; 91% in [6]. The Activity turned out to be 96% in [7]; 88% in assay [8]; 66% in assay [9]; 95% in assay [10]; 92% in assay [11]; 83% in [12]. In addition, the Activity in assay [13] was 88%; in assay [14], 94%; in assay [15], 97%; in [16], 88%; in assay [17] it was 84%; in assay [18] it was 100%. The Activity is 93% in [19]; 87% in assay [20]; 94% in [21]; 100% in assay [22]; 100% in assay [23]; 79% in [24].
